Measured values as given in the CheMixHub viscosity set.
“And” between values parts separate entries of the source, which are not always exact repeats. Equal entries are not always repeated.

Experiment: xn = mol fraction of the nth substance listed

CCCCn1cc[n+](C)c1.O=S(=O)([O-])C(F)(F)F + CCOC(C)=O
100 kPa
Details	viscosity [mPa·s]
298.15 K, x1 = 0.8932	54.68
303.15 K, x1 = 0.3056	8.97
308.15 K, x1 = 0.3056	7.31
313.15 K, x1 = 0.3056	6.63
313.15 K, x1 = 0.3978	9.79
318.15 K, x1 = 0.3056	5.79
323.15 K, x1 = 0.3056	4.97
323.15 K, x1 = 0.3978	7.21
323.15 K, x1 = 0.5067	9.88

c1ccc2ccccc2c1 + O=[N+]([O-])c1ccccc1
viscosity [mPa·s], 101 kPa
Details	303.15 K	308.15 K	313.15 K	318.15 K	323.15 K
x1 = 0.2952	1.646	1.544	1.44	1.329	1.231
x1 = 0.4191	–	1.578	1.45	1.346	1.252

CC1COC(=O)O1 (stereo unspecified) + CCCCCCO
Details	viscosity [mPa·s]
298 K, 101.3 kPa, x1 = 0.0204	4.601
298 K, 101.3 kPa, x1 = 0.0408	4.607
298 K, 101.3 kPa, x1 = 0.0606	4.612
298 K, 101.3 kPa, x1 = 0.0808	4.612
298 K, 101.3 kPa, x1 = 0.1003	4.609
298 K, 101.3 kPa, x1 = 0.2005	4.548
298 K, 101.3 kPa, x1 = 0.3005	4.406
298 K, 101.3 kPa, x1 = 0.4004	4.191
298 K, 101.3 kPa, x1 = 0.5001	3.912
298 K, 101.3 kPa, x1 = 0.6002	3.586
298 K, 101.3 kPa, x1 = 0.7001	3.228
298 K, 101.3 kPa, x1 = 0.8001	2.854
298 K, 101.3 kPa, x1 = 0.9	2.536
298.15 K, 101 kPa, x1 = 0.0254	4.523
298.15 K, 101 kPa, x1 = 0.0901	4.346
298.15 K, 101 kPa, x1 = 0.1722	4.13
298.15 K, 101 kPa, x1 = 0.2303	3.984
298.15 K, 101 kPa, x1 = 0.3087	3.796
298.15 K, 101 kPa, x1 = 0.3846	3.621
298.15 K, 101 kPa, x1 = 0.4521	3.473
298.15 K, 101 kPa, x1 = 0.5332	3.303
298.15 K, 101 kPa, x1 = 0.6124	3.145
298.15 K, 101 kPa, x1 = 0.7005	2.978
298.15 K, 101 kPa, x1 = 0.7883	2.821
298.15 K, 101 kPa, x1 = 0.8455	2.722
298.15 K, 101 kPa, x1 = 0.9112	2.614
298.15 K, 101 kPa, x1 = 0.977	2.509

O=C(O)C(O)C(O)C(=O)O (stereo unspecified) + O
viscosity, 100 kPa
Details	298.15 K	303.15 K	308.15 K	313.15 K	318.15 K
x1 = 0.003486	0.9322 mPa·s and 0.9322 mPa·s	0.8367 mPa·s and 0.8367 mPa·s	0.7533 mPa·s and 0.7533 mPa·s	0.6829 mPa·s and 0.6829 mPa·s	0.6209 mPa·s and 0.6209 mPa·s
x1 = 0.006751	0.9765 mPa·s and 0.9765 mPa·s	0.8735 mPa·s and 0.8735 mPa·s	0.7864 mPa·s and 0.7864 mPa·s	0.7098 mPa·s and 0.7098 mPa·s	0.6435 mPa·s and 0.6435 mPa·s
x1 = 0.009818	1.038 mPa·s and 1.038 mPa·s	0.9206 mPa·s and 0.9206 mPa·s	0.8235 mPa·s and 0.8235 mPa·s	0.7408 mPa·s and 0.7408 mPa·s	0.6707 mPa·s and 0.6707 mPa·s
x1 = 0.0127	1.088 mPa·s and 1.088 mPa·s	0.9696 mPa·s and 0.9696 mPa·s	0.8645 mPa·s and 0.8645 mPa·s	0.7756 mPa·s and 0.7756 mPa·s	0.6996 mPa·s and 0.6996 mPa·s

CC1COC(=O)O1 (stereo unspecified) + C1CCOC1
viscosity [mPa·s]
Details	298.15 K	308.15 K	318.15 K
101 kPa, x2 = 0.2	1.7	–	–
101 kPa, x2 = 0.6	0.862	–	–
101.33 kPa, x2 = 0.0524	2.227	1.858	1.589
101.33 kPa, x2 = 0.1036	2.023	1.709	1.459
101.33 kPa, x2 = 0.1429	1.87	1.598	1.373
101.33 kPa, x2 = 0.2064	1.674	1.432	1.239
101.33 kPa, x2 = 0.2431	1.567	1.351	1.167
101.33 kPa, x2 = 0.3083	1.393	1.208	1.057
101.33 kPa, x2 = 0.3478	1.303	1.133	0.992
101.33 kPa, x2 = 0.4095	1.171	1.025	–
101.33 kPa, x2 = 0.5098	–	0.8753	0.7782
101.33 kPa, x2 = 0.5621	–	0.8044	0.7222
101.33 kPa, x2 = 0.6094	0.8417	0.7503	0.6719
101.33 kPa, x2 = 0.6479	0.7836	0.7016	0.6343
101.33 kPa, x2 = 0.7082	0.7171	0.6445	0.5827
101.33 kPa, x2 = 0.7635	0.6549	0.596	–
101.33 kPa, x2 = 0.8062	0.6195	–	0.5098
101.33 kPa, x2 = 0.8388	0.5831	0.5361	0.4805
101.33 kPa, x2 = 0.9035	0.5357	0.4872	0.4425
101.33 kPa, x2 = 0.9631	0.485	0.4449	0.404
